This note sets out measurements from patent US20230346769A1, “USE OF SIMPLE ACYCLIC POLYAMINES FOR THE TREATMENT OF DISEASES CAUSED BY PARASITES OF THE GENUS LEISHMANIA” (Universidad De Granada, priority 2020, published 2023).

Entries after “also recorded” stand apart in the source; their conditions may differ.

Assay [1] deals with L. infantum promastigote forms. In words: In vitro activity against extracellular (promastigote) forms. The assay is classed as cell-based, Leishmania infantum. The note with it: Leishmania infantum, 72 h. The text has this: (§1) Methodology: Cultures of three Leishmania species, representative of the species causing each of the clinical forms of the disease, were used for these studies. Specifically, strains MCAN/ES/2001/UCM-1 O of L.infantum, isolated and characterised in Madrid from an infected dog; MHOM/BR/1975/M2904 of L.braziliensis, isolated in Brazil in a human case, and LCR-L 133 LRC of L.donovani. isolated in Jerusalem, Israel from a case of kala-azar […] (WHO Technical Reports Series 949. Geneva: WHO. March. The cultures of parasites come from an own collection which was prepared from a biobank project (Biobank and Characterisation Unit of Strains and Species of Trypanosomatids, Responsible for Human, Animal and Plant Pathologies, Cgl-2008-03687-E/Bos.), and are available on request.
(§2) The promastigote forms of the three species studied were cultured in vitro in sterility in single-phase MTL culture medium (Medium Trypanosomes Liquid) made from Hank’s Balanced Salts (Sigma-Aldrich, H6136) enriched with 10% (v/v) of Fetal Bovine Serum (SBF-1) inactivated at 56° C./ 30 minutes. The parasite inoculum to initiate the culture was 5 × 10^4 cells/ml in 5 ml medium in 25 cm^2 Falcon® plastic flasks and kept in an oven at 28° C. The cultures were performed routinely, achieving exponential growth of the flagellates until obtaining the cell mass necessary for the subsequent studies. Both promastigote forms and amastigote forms were used to conduct the assays.
(§3) The promastigote forms of the three Leishmania strains, cultured in the manner described above, were harvested in their exponential growth phase by centrifugation at 400 g for 10 min. The number of parasites was counted in a Neubauer Haemocytometer Counting Chamber and were inoculated in a 24-well plate at a concentration of 5 ×10^4 parasites/well.
(§4) The compounds to be assayed were dissolved in DMSO at a concentration of 0.01% (v/v), concentration at which this solvent is not toxic nor has any effect on the growth of parasites. The compounds were added to the culture medium at final concentrations of 100, 50, 25 and 12.5 µM. […] M. et al. Med. Chem. 2011. 54. 970-979].

Assay [2] has as its system L. braziliensis promastigote forms. The assay is described as above. The assay is classed as cell-based, Leishmania braziliensis.
Text: as §1, §2, §3, §4

The subject of assay [3] is L. donovani promastigote forms. The assay is described as above. The assay is classed as cell-based, Leishmania donovani.
Text: as §1, §2, §3, §4

Assay [4] has as its system intracellular forms of L.infantum in J774.2 macrophages. As to the kind of experiment: Infection rate and parasite growth in infected macrophage cultures. The conditions noted are these: compound at IC25, 10 days. The assay is classed as cell-based, Leishmania infantum. As to the method:
(§5) Methodology: Macrophages of the J774.2 line preserved in the laboratory of the present inventors by cryopreservation at -80° C. and successive runs in MEM+Glutamine + 20% SBFI medium were used, which were deposited in a […] tube and centrifuged at 100 g for 5 minutes. The supernatant was discarded and the cells were resuspended in medium corresponding to a final concentration of 1×10^6 cells/ml. Subsequently, 10 μl of the cell suspension was deposited into each well of a 24-well culture plate each with a 10 mm diameter round slide. A final volume of 500 μl was completed with the culture medium and incubated for 24 h at 37° C. in humid atmosphere with 5% CO2. […] The non-phagocytic parasites and products were removed by washing and the infected cultures were maintained for 10 days in fresh medium added every 48 hours. The activity of the compounds was determined by the percentage of infected cells and the number of amastigotes per infected cell. Finally, the cultures were fixed and stained with methanol and Giemsa.

The subject of assay [5] is intracellular forms of L.braziliensis in J774.2 macrophages. The assay is described as above. The assay is classed as cell-based, Leishmania braziliensis. The note with it: compound at IC25, 10 days. As to the method: as §5
Assay [6] has as its system intracellular forms of L.donovani in J774.2 macrophages. The description is as above. The assay is classed as cell-based, Leishmania donovani. The conditions noted are these: compound at IC25, 10 days. As to the method: as §5
The subject of assay [7] is FeSOD of promastigote forms of L.infantum. In words: In vitro inhibition of FeSOD (NBT reduction). The assay is classed as biochemical, Leishmania infantum. Here is the method:
(§6) Methodology: Compounds that were selected from the leishmanicidal activity shown in previous experiments were evaluated as inhibitors of FeSOD enzyme activity, which is unique to the kinetoplastid parasites to which Leishmania belongs. Being exclusive, it is absent in the vertebrate host, since these usually have an analogous form of that enzyme, but complexed to a copper or zinc atom (Cu/ZnSOD). For this reason, this enzyme is a therapeutic target for the design of new drugs, since the capture of the metal ion by complexing mechanisms can inactivate the enzyme and compromise the survival of the parasite with the appearance of free radicals.
Inhibition caused by the novel compounds on FeSOD/ Cu-Zn SOD activity was quantified on the spectrophotometer at 560 nm according to the technique described by [W F. Beyer. I. Fridovich. Anal Biochem. 1987. 161: 559-66] based on the determination of the reduction of NBT (nitro blue tetrazolium) by superoxide ions and which the group of the present inventors has developed for the assay in trypanosomatides, being a routine technique in the laboratory of said group [F. Luque. et. al. Comp. Biochem. Physiol. C Toxicol. Pharmacol. 2000. 126: 39-44; M. Sanchez-Moreno. Med. Chem. 2011. 54. 970-9; I. Ramírez-Macías. et. al. J. Antimicrob. Chemother 2011. 66(4): […]].
Briefly, the cultured parasites as described in Example 1 underwent centrifugation, the pellet was resuspended (0.5 - 0.6 g/ml) in 3 ml of STE buffer ([…]. pH 7.8) and underwent 3 cycles of sonication from 30 s at 60 V. Then, it was centrifuged at 1500 g for 10 min at 4° C. and the pellet was washed 3 times with ice-cooled STE buffer. This fraction was centrifuged (2500 g for 10 min at 4° C.) and the supernatant was subsequently collected. Protein concentrations were determined by means of the Bradford method (Sigma-Aldrich) using bovine serum albumin as standard. […] A first measurement of the absorbance at 560 nm was made on a spectrophotometer and, after 10 minutes under light and under stirring conditions, the absorbance was re-determined. […]

The test system of assay [8] is FeSOD of the promastigote forms of L.braziliensis. As to the kind of experiment: In vitro inhibition of FeSOD (NBT reduction). The assay is classed as biochemical, Leishmania braziliensis. Here is the method: as §6
(§7) Inhibition caused by the novel compounds on FeSOD/ Cu-Zn SOD activity was quantified on the spectrophotometer at 560 nm according to the technique described by [W F. Beyer. I. Fridovich. Anal Biochem. 1987. […]
(§8) Briefly, the cultured parasites as described in Example 1 underwent centrifugation, the pellet was resuspended (0.5 - 0.6 g/ml) in 3 ml of STE buffer (0.25 M. Tris-HCI 25 mM sucrose. 1 M EDTA. pH 7.8) and underwent 3 cycles of sonication from 30 s at 60 V. Then, it was centrifuged at 1500 g for 10 min at 4° C. and the pellet was washed 3 times with ice-cooled STE buffer. […] Protein concentrations were determined by means of the Bradford method (Sigma-Aldrich) using bovine serum albumin as standard. […]

The subject of assay [9] is FeSOD of promastigote forms of L.donovani. In words: In vitro inhibition of FeSOD (NBT reduction). The assay is classed as biochemical, Leishmania donovani. Here is the method:
as §6, §7, §8

The mark [10] stands for this setting: IC50 of macrophages / IC50 of parasite form.

With `CNCCNCc1cccnc1` [Compound 2, 1-{3-pyridyl)-2,5-diazahexane], the IC50 in assay [1] worked out at 6.4 ± 0.6 µM; in assay [2] (Leishmania braziliensis, 72 h) it was 4.1 ± 0.2 µM; in assay [3] (Leishmania donovani, 72 h), 11.7 ± 0.8 µM. Besides, in [2] (setting [10]), the “Selectivity Index (SI) L. brazilensis Promastigote forms” value was 76. Further, the “Selectivity Index (SI) L. donvovani Promastigote forms” value in assay [3] (setting [10]) was found to be 26. Further, the “Number of amastigotes per infected cell” value in assay [4] was “lowest values over time”; in assay [5], “lowest values over time; also recorded: effective by decreasing”; in assay [6], “lowest values over time; also recorded: effective by decreasing”. Besides, the results for the “Percentage of infection (infection rate)” value in assay [4], in assay [5] and in [6] were “lowest values over time”, “lowest values over time; also recorded: effective by decreasing” and “lowest values over time; also recorded: effective by decreasing”, respectively. Moreover, in assay [7], the “Concentration for 50% inhibition (IC50) of FeSOD of L.infantum” value is on record as “less than that necessary to achieve the same percentage of inhibition of the CuZnSOD enzyme of human erythrocytes; also recorded: showed ability to inhibit FeSOD; also recorded: low IC50 value”. In addition, in assay [8], the “Concentration for 50% inhibition (IC50) of FeSOD of L.braziliensis” value was “showed ability to inhibit FeSOD”. Moreover, the “Concentration for 50% inhibition (IC50) of FeSOD of L.donovani” value in assay [9] is on record as “lower than that necessary for the enzyme of human erythrocytes; also recorded: showed ability to inhibit FeSOD; also recorded: low IC50 value”.

One may read the IC50 as the point on the concentration scale where inhibition reaches its midpoint. Low values mean higher potency, high ones lower potency.
